Measurements reported in patent publication US20110044913A1, “8-HYDROXY-5-[(1R)-1-HYDROXY-2-[[(1R)-2-(4-METHOXYPHENYL)-1-METHYLETHYL]AMINO]ETHYL]-2(1H)-QUINOLINONE HEMI-FUMARATE” (Chiesi Farmaceutici S.p.A., priority 2009, published 2011).
Counter-ions that a name gives are not always drawn.

What was measured:
Type in all cases: physicochemical
[1] = Hygroscopicity of the salt
[2] = Particle size distribution after jet milling (micronization); conditions: micronized batch
From the text: A batch of formoterol fumarate dihydrate is milled in a nitrogen fluid jet mill apparatus MC 50 (JET Pharma S.A).

[3] = Solubility of the salt in different solvents
[4] = Chemical and physical stability of the salt; conditions: different conditions of humidity and temperature
[5] = Dispersion of the micronized salt in the carrier by Near Infrared microscopy imaging (Near Imaging); conditions: micronized form, after 180 minute of mixing
Experimental: As it can be appreciated from Table 6, upon milling, the salt of the present invention remains crystalline and its chemical purity is not altered. The batch is then added to a carrier made of coarser particles.
The homogeneous dispersion of the active ingredient in the powder, and the absence of aggregates of active particles is established using a Near Infrared spectrophotometer equipped with a microscopy imaging system (Near Imaging).

COc1ccc(CC(C)NCC(O)c2ccc(O)c3[nH]c(=O)ccc23)cc1 [Carmoterol hemi-fumarate, 8-hydroxy-5-[(1R)-1-hydroxy-2-[[(1R)-2-(4-methoxyphenyl)-1-methylethyl]amino]ethyl]-2(1H)-quinolinone (carmoterol) hemi-fumarate salt]
Hygroscopicity [1]: non-hygroscopic | Particle size d (v, 0.1) [2]: 0.79 μm | Particle size d (v, 0.5) [2]: 3.73 μm | Particle size d (v, 0.9) [2]: 7.58 μm | Solubility in HFA propellants ([3]; HFA propellants): practically insoluble | Solubility in Vertrel XF ([3]; solvent: Vertrel XF (2,3-dihydodecafluoropentane, simulates HFA propellants), l.o.d. = limit of detection): <l.o.d.^(2) | Solubility in Acetone ([3]; solvent: acetone): 0.008 %, w/v | Solubility in Ethanol ([3]; solvent: ethanol): 0.27 %, w/v | solubility ([3]; solvent: water): 13.6 mg/mL | Chemical and physical stability [4]: chemically and physically stable | Agglomerates after mixing with carrier [5]: no agglomerates are observed
